The values below are quoted from earlier work in patent US20050245902A1, “Substance delivery device” (priority 2002, published 2005).

The conditions of data set [1]: in vivo.

As for `CC(=O)[C@H]1CC[C@H]2[C@@H]3CCC4=CC(=O)CC[C@]4(C)[C@H]3CC[C@]12C` [progesterone], the water solubility entry is reported as “poorly water-soluble”. Besides, the half life in data set [1] is 20 min.
